Experiments:
Assay in all cases: relative viability (nuclei count vs DMSO), 5 days (fraction); higher = more cells survive
Etoposide + Palbociclib = compound: COc1cc([C@@H]2c3cc4c(cc3[C@@H](O[C@@H]3O[C@@H]5CO[C@@H](C)O[C@H]5[C@H](O)[C@H]3O)[C@H]3COC(=O)[C@H]23)OCO4)cc(OC)c1O [Etoposide] + CC(=O)c1c(C)c2cnc(Nc3ccc(N4CCNCC4)cn3)nc2n(C2CCCC2)c1=O [Palbociclib] (partner 0.5 µM)
Outline: (§1)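 Relative viability is defined as nuclei in treated wells over nuclei in vehicle wells. Duplicate plates were run and medians reported. Lung cancer cell lines in 1536-well plates were dosed by pin tool one day after seeding, with one drug or with a fixed anchor-drug dose plus five library-drug doses (not always all listed) in √10 steps, and nuclei were counted after 5 days.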

Bleomycin + Linsitinib = compound: CC1=C(N=C(N=C1N)[C@H](CC(=O)N)NC[C@@H](C(=O)N)N)C(=O)N[C@@H]([C@H](C2=CN=CN2)OC3C(C(C(C(O3)CO)O)O)OC4C(C(C(C(O4)CO)O)OC(=O)N)O)C(=O)N[C@H](C)[C@H]([C@H](C)C(=O)N[C@@H]([C@@H](C)O)C(=O)NCCC5=NC(=CS5)C6=NC(=CS6)C(=O)NCCC[S+](C)C)O [Bleomycin] + C[C@]1(O)C[C@@H](c2nc(-c3ccc4ccc(-c5ccccc5)nc4c3)c3c(N)nccn32)C1 [Linsitinib] (partner 1 µM); details: main component drawn
Outline: as §1

Bleomycin + Bortezomib = compound: CC1=C(N=C(N=C1N)[C@H](CC(=O)N)NC[C@@H](C(=O)N)N)C(=O)N[C@@H]([C@H](C2=CN=CN2)OC3C(C(C(C(O3)CO)O)O)OC4C(C(C(C(O4)CO)O)OC(=O)N)O)C(=O)N[C@H](C)[C@H]([C@H](C)C(=O)N[C@@H]([C@@H](C)O)C(=O)NCCC5=NC(=CS5)C6=NC(=CS6)C(=O)NCCC[S+](C)C)O [Bleomycin] + CC(C)C[C@H](NC(=O)[C@H](Cc1ccccc1)NC(=O)c1cnccn1)B(O)O [Bortezomib] (partner 0.002 µM); details: main component drawn
Outline: as §1

Etoposide + Dasatinib = compound: COc1cc([C@@H]2c3cc4c(cc3[C@@H](O[C@@H]3O[C@@H]5CO[C@@H](C)O[C@H]5[C@H](O)[C@H]3O)[C@H]3COC(=O)[C@H]23)OCO4)cc(OC)c1O [Etoposide] + Cc1nc(Nc2ncc(C(=O)Nc3c(C)cccc3Cl)s2)cc(N2CCN(CCO)CC2)n1 [Dasatinib] (partner 0.075 µM)
Outline: as §1

Cell Line	relative viability (Etoposide + Palbociclib; first compound 0.01 µM)	relative viability (Etoposide + Palbociclib; first compound 0.03162 µM)	relative viability (Etoposide + Palbociclib; first compound 0.1 µM)	relative viability (Etoposide + Palbociclib; first compound 0.3162 µM)	relative viability (Etoposide + Palbociclib; first compound 1 µM)	relative viability (Bleomycin + Linsitinib; first compound 0.01 µM)	relative viability (Bleomycin + Linsitinib; first compound 0.03162 µM)	relative viability (Bleomycin + Linsitinib; first compound 0.1 µM)	relative viability (Bleomycin + Linsitinib; first compound 0.3162 µM)	relative viability (Bleomycin + Linsitinib; first compound 1 µM)	relative viability (Bleomycin + Bortezomib; first compound 0.01 µM)	relative viability (Bleomycin + Bortezomib; first compound 0.03162 µM)	relative viability (Bleomycin + Bortezomib; first compound 0.1 µM)	relative viability (Bleomycin + Bortezomib; first compound 0.3162 µM)	relative viability (Bleomycin + Bortezomib; first compound 1 µM)	relative viability (Etoposide + Dasatinib; first compound 0.01 µM)	relative viability (Etoposide + Dasatinib; first compound 0.03162 µM)	relative viability (Etoposide + Dasatinib; first compound 0.1 µM)	relative viability (Etoposide + Dasatinib; first compound 0.3162 µM)	relative viability (Etoposide + Dasatinib; first compound 1 µM)
201T	0.366	0.35	0.325	0.349	0.385	0.959	1.05	1.05	1	0.83	1.12	1	1.01	0.921	0.827	0.639	0.655	0.524	0.548	0.477
A549	–	–	–	–	–	0.514	0.472	0.384	0.0789	0.0779	–	–	–	–	–	–	–	–	–	–
A-427	0.51	0.479	0.486	0.378	0.282	0.999	1.08	1.05	0.893	0.266	0.857	0.817	0.725	0.167	0.213	0.702	0.818	0.435	0.446	0.2
ABC-1	0.572	0.71	0.529	0.515	0.419	0.938	0.647	0.63	0.355	0.248	0.325	0.311	0.275	0.195	0.242	0.535	0.597	0.336	0.248	0.207
BEN	0.491	0.487	–	0.454	0.539	0.862	0.868	0.896	0.637	0.682	0.909	0.868	0.967	0.578	0.609	0.353	0.416	–	0.304	0.351
CAL-12T	0.346	0.505	0.299	0.306	0.285	0.623	0.49	0.258	0.156	0.176	–	0.87	0.692	0.293	0.28	0.345	0.473	0.351	0.396	0.196
COR-L23	0.23	0.27	0.27	0.261	0.146	0.696	0.559	0.307	0.106	0.102	0.669	0.774	0.355	0.136	0.102	0.398	0.461	0.428	0.26	0.161
COR-L 105	0.423	0.41	0.383	0.394	0.366	0.765	0.798	0.708	0.393	0.317	0.711	0.594	0.549	0.337	0.292	0.3	0.345	0.273	0.328	0.293
Calu-6	–	–	–	–	–	0.741	0.6	0.508	0.174	0.125	0.638	0.673	0.334	0.226	0.191	–	–	–	–	–
ChaGo-K-1	0.929	0.952	0.682	0.289	0.222	–	–	–	–	–	–	1.01	0.768	0.393	0.306	0.479	0.59	0.51	0.441	0.146
EBC-1	–	–	–	–	–	0.829	0.72	0.78	0.698	0.366	0.474	0.422	0.469	0.307	0.233	–	–	–	–	–
EKVX	0.358	0.434	0.21	0.375	0.282	0.909	0.822	0.859	0.375	0.336	0.859	1.04	0.954	0.511	0.318	0.619	0.529	0.354	0.37	0.282
EMC-BAC-2	0.495	0.49	0.399	0.321	0.254	0.746	0.696	0.688	0.38	0.265	0.927	0.92	0.868	0.319	0.279	0.319	0.333	0.193	0.16	0.112
EPLC-272H	0.359	0.284	0.326	0.339	0.304	1.21	1.06	1.08	1.45	0.196	0.863	0.883	0.718	0.174	0.158	0.373	0.342	0.222	0.354	0.245
H3255	0.331	0.334	0.351	0.315	0.281	0.702	0.879	0.902	0.538	0.387	0.664	0.925	0.666	0.283	0.244	0.424	0.367	0.345	0.306	0.274
HARA	0.242	0.335	0.245	0.269	0.203	0.944	1.02	0.887	0.457	0.467	1	1.09	1.04	0.514	0.239	0.263	0.298	0.259	0.23	0.181
HCC-15	0.623	0.695	0.828	0.468	0.244	0.793	0.804	0.763	0.418	0.288	0.914	1.01	0.815	0.299	0.318	0.623	0.64	0.537	0.261	0.0797

Source: the supplement of paper PMC10307832
